The record followed here is ChEMBL document CHEMBL1138082, “Structural requirements for the substrates of the H+/peptide cotransporter PEPT2 determined by three-dimensional quantitative structure-activity relationship analysis” (J Med Chem, 2006).

Residues, ends and D or L forms follow the SMILES beside them.

Assay [1] concerns the target T1, Solute carrier family 15 member 2 (Rattus norvegicus, UniProt Q63424).
T1 sequence (Q63424 whole entry): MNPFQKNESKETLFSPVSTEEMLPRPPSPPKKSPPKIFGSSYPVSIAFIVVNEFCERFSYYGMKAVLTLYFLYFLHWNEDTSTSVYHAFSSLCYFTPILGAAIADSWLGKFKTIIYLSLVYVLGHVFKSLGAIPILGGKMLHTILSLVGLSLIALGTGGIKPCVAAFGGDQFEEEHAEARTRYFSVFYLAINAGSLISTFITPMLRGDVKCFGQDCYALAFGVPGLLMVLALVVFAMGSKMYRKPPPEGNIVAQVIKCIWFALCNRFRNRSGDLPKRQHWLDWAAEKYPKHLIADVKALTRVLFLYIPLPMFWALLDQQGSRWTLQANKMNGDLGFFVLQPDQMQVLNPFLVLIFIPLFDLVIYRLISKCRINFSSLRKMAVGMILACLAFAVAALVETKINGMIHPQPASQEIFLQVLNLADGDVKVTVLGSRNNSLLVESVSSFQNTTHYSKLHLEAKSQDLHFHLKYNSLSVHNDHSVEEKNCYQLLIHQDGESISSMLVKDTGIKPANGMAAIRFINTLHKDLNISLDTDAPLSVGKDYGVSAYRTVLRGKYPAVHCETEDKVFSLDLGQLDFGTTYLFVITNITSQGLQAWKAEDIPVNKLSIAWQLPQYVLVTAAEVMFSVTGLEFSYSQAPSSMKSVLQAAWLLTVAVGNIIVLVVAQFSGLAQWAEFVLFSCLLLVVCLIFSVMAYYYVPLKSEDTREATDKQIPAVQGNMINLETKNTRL
The assay can be described thus: Displacement of [14C]Gly-Sar from rat PEPT2 in SKPT0193 C1.2 cells. In kind it is cell-based. (Displacement assays read how much labelled ligand stays bound in the presence of the test substance.)

Assay [2] deals with T2, Solute carrier family 15 member 1 (Homo sapiens, UniProt P46059).
T2 sequence (P46059 whole entry): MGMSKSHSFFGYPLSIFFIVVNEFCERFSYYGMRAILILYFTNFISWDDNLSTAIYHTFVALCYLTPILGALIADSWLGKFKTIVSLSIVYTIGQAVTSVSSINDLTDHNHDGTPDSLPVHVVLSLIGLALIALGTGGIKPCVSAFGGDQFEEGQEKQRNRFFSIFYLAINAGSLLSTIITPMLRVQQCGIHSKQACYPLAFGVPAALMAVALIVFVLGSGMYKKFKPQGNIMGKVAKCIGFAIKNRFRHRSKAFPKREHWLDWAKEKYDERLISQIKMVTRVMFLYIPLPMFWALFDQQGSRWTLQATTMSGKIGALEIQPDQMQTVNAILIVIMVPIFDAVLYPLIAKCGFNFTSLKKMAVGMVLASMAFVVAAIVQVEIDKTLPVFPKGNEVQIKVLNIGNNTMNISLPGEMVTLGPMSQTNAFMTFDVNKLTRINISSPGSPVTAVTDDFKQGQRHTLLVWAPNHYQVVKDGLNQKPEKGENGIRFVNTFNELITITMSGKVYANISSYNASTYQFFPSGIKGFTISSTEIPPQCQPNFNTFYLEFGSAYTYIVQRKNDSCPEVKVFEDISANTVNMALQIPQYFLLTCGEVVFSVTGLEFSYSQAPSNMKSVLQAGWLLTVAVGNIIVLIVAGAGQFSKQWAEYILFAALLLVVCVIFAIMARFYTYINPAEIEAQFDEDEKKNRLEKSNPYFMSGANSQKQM
The assay can be described thus: Displacement of [14C]Gly-Sar from human PEPT1 in Caco-2 cells. In kind it is cell-based.

Assay [3] can be described thus: Selectivity for rat PEPT2 over human PEPT1.

The term Ki denotes a measure of affinity in units of concentration, obtained from inhibition or displacement. Low readings indicate tighter binding, high ones weaker binding. For `C[C@H](NC(=O)[C@H](Cc1ccccc1)NC(=O)c1ccccc1)C(=O)O`, the Ki in assay [1] was 3.7 µM; in assay [2], 20 µM. In assay [3], the log selectivity ratio came out at 0.7.
Regarding `CC(C)C[C@H](N)C(=O)N[C@@H](C)C(=O)N[C@@H](CCCNC(=N)N)C(=O)O` (H-Leu-Ala-Arg-OH), the values for the Ki in assay [1] and in assay [2] were 1200 µM and 100 µM, respectively.
As for `CC(C)C[C@H](N)C(=O)N[C@@H](C)C(=O)N[C@@H](CCCN=C(N)N)C(=O)O` (H-Leu-Ala-Arg-OH), the log selectivity ratio in assay [3] was -1.1.
With `C[C@H](NC(=O)[C@@H](N)Cc1c[nH]c2ccccc12)C(=O)O` (H-Trp-Ala-OH), the Ki in assay [1] came to 4 µM. In addition, the log selectivity ratio in assay [3] was determined as 1.7.
